Earlier results as cited in patent US12427126B2, “Niclosamide formulations and methods of use” (Florida State University Research Foundation, Inc., priority 2020, dated 2025).

Tests used:
[1] = administered orally

- solubility: low solubility
- systemic bioavailability [1]: low systemic bioavailability
SMILES: O=C(Nc1ccc([N+](=O)[O-])cc1Cl)c1cc(Cl)ccc1O [Niclosamide]
